Data from ChEMBL document CHEMBL1147406, “Polar substitutions in the benzenesulfonamide ring of celecoxib afford a potent 1,5-diarylpyrazole class of COX-2 inhibitors” (Bioorg Med Chem Lett, 2004).

How the values were obtained:
[1] = target: T1, Prostaglandin G/H synthase 2 (Homo sapiens) (UniProt P35354); assay: Inhibitory activity of compound against human Prostaglandin G/H synthase 2 expressed in sf-9 cells infected with baculovirus at 100 uM concentration; conditions: Sf9
T1 sequence (whole entry): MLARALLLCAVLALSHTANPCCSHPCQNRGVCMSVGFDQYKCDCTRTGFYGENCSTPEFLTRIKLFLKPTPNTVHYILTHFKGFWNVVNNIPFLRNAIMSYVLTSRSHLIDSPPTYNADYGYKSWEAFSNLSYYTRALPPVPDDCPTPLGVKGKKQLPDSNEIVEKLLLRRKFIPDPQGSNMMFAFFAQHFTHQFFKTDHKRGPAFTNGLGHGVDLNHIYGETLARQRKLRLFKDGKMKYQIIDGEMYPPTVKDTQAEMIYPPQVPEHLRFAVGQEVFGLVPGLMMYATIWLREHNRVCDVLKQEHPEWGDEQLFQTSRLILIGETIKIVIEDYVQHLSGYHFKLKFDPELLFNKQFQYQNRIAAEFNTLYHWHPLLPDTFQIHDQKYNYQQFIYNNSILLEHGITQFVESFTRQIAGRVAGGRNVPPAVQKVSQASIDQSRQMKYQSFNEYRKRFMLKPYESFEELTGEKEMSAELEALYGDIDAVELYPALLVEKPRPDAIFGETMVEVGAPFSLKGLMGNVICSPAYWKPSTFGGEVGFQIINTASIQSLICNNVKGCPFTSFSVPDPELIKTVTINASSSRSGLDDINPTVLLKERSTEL

[2] = target: T2, Prostaglandin G/H synthase 1 (Ovis aries) (UniProt P05979); assay: Inhibitory activity against prostaglandin G/H synthase 1 from ram seminal vesicles at 100 uM concentration
T2 sequence (whole entry): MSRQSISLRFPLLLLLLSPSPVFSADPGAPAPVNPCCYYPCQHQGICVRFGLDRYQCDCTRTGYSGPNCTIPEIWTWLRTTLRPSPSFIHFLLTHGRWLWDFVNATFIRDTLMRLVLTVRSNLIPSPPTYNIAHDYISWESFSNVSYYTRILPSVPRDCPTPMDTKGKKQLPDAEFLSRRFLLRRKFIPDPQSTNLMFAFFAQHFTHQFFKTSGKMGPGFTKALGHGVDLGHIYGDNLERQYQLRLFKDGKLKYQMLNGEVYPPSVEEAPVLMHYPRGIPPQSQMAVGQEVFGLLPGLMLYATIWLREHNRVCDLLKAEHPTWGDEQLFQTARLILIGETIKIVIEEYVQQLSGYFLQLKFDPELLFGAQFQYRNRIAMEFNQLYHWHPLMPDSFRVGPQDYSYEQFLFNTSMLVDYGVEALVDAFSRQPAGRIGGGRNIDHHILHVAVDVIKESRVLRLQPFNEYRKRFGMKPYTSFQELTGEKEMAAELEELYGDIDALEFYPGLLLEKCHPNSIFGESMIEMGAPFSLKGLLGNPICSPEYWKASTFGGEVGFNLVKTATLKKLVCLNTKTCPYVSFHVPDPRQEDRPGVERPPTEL

[3] = target: T3, Prostaglandin G/H synthase 2 (Homo sapiens, UniProt P35354); assay: Inhibitory activity against human Prostaglandin G/H synthase 2 expressed in sf-9 cells infected with baculovirus; type: cell-based, Sf9
T3 sequence (P35354 whole entry): T1 sequence (whole entry)

[4] = target: T4, Prostaglandin G/H synthase 1 (Ovis aries, UniProt P05979)
T4 sequence (P05979 whole entry): T2 sequence (whole entry)

[5] = target: T1, Prostaglandin G/H synthase 2 (Homo sapiens); assay: Inhibitory activity of compound against human cyclooxygenase-2 expressed in sf-9 cells infected with baculovirus at 10 uM concentration; conditions: Sf9
[6] = target: T2, Prostaglandin G/H synthase 1 (Ovis aries); assay: Inhibitory activity of compound against Prostaglandin G/H synthase 1 from ram seminal vesicles at 10 uM concentration
[7] = target: T2, Prostaglandin G/H synthase 1 (Ovis aries); assay: Inhibitory activity of compound against prostaglandin G/H synthase 1 from ram seminal vesicles at 10 uM concentration

| Compound | IC50 [3] | IC50 [4] | also measured |
| --- | --- | --- | --- |
| Cc1ccc(-c2cc(C(F)(F)F)nn2-c2ccc3c(c2)CCS3(=O)=O)cc1 | – | – | inhibition [1]: 10%; inhibition [2]: 90% |
| Cc1ccc(-c2cc(C(F)(F)F)nn2-c2ccc(S(N)(=O)=O)c(CO)c2)cc1 | 0.76 µM | 278 µM | – |
| CCC(=O)OCc1cc(-n2nc(C(F)(F)F)cc2-c2ccc(C)cc2)ccc1S(N)(=O)=O | 0.57 µM | 34.6 µM | – |
| CS(=O)(=O)c1ccc(-c2cc(C(F)(F)F)nn2-c2ccc(S(N)(=O)=O)c(CO)c2)cc1 | – | – | inhibition [1]: 29%; inhibition [2]: 68% |
| COc1ccc(-c2cc(C(F)(F)F)nn2-c2ccc(S(C)(=O)=O)c(CO)c2)cc1 | 3.2 µM | 300 µM | – |
| COc1ccc(-c2cc(C(F)(F)F)nn2-c2ccc(S(N)(=O)=O)c(CO)c2)cc1 | 0.365 µM | 63 µM | – |
| NS(=O)(=O)c1ccc(-n2nc(C(F)(F)F)cc2-c2ccc(F)cc2)cc1CO | 1.99 µM | 500 µM | – |
| COc1ccccc1-c1cc(C(F)(F)F)nn1-c1ccc(S(N)(=O)=O)c(CO)c1 | 28.6 µM | 1150 µM | – |
| CC(=O)NCc1cc(-n2nc(C(F)(F)F)cc2-c2ccc(C)cc2)ccc1S(N)(=O)=O | 6.85 µM | 4.62 µM | – |
| CCc1ccc(-c2cc(C(F)(F)F)nn2-c2ccc(S(N)(=O)=O)c(CO)c2)cc1 | 1.38 µM | 500 µM | – |
| CSc1ccc(-c2cc(C(F)(F)F)nn2-c2ccc(S(N)(=O)=O)c(C(C)O)c2)cc1 (stereo not given) | – | – | inhibition [1]: 50%; inhibition [2]: 6% |
| COc1ccc(-c2cc(C(F)(F)F)nn2-c2ccc(S(N)(=O)=O)c(CNC(C)=O)c2)cc1 | 2.8 µM | 100 µM | – |
| CC(=O)NCc1cc(-n2nc(C(F)(F)F)cc2-c2ccc(Cl)cc2)ccc1S(N)(=O)=O | 5 µM | 100 µM | – |
| COc1ccc(-c2cc(C(F)(F)F)nn2-c2ccc(S(C)(=O)=O)c(C=O)c2)cc1 | – | – | inhibition [1]: 100%; inhibition [5]: 44%; inhibition [2]: 92% |
| COc1ccc(-c2cc(C(F)(F)F)nn2-c2ccc3c(c2)CNS3(=O)=O)cc1 | – | – | inhibition [1]: 12%; inhibition [2]: 85% |
| CCOc1ccc(-c2cc(C(F)(F)F)nn2-c2ccc(S(N)(=O)=O)c(CO)c2)cc1 | 0.901 µM | 135 µM | – |

| Compound | IC50 [3] | IC50 [4] | also measured |
| --- | --- | --- | --- |
| NS(=O)(=O)c1ccc(-n2nc(C(F)(F)F)cc2-c2ccccc2)cc1CO | 3.45 µM | 1090 µM | – |
| CCOC(=O)OCc1cc(-n2nc(C(F)(F)F)cc2-c2ccc(C)cc2)ccc1S(C)(=O)=O | – | – | inhibition [5]: 0%; inhibition [6]: 9% |
| COc1ccc(-c2cc(C(F)(F)F)nn2-c2ccc3c(c2)CCS3(=O)=O)cc1 | – | – | inhibition [1]: 36%; inhibition [2]: 86% |
| CC(C)Cc1ccc(-c2cc(C(F)(F)F)nn2-c2ccc(S(N)(=O)=O)c(CO)c2)cc1 | – | – | inhibition [1]: 14%; inhibition [2]: 4% |
| CSc1ccc(-c2cc(C(F)(F)F)nn2-c2ccc(S(C)(=O)=O)c(CO)c2)cc1 | – | – | inhibition [1]: 45%; inhibition [2]: 0% |
| NS(=O)(=O)c1ccc(-n2nc(C(F)(F)F)cc2-c2cccc(F)c2)cc1CO | 7.05 µM | 1000 µM | – |
| NS(=O)(=O)c1ccc(-n2nc(C(F)(F)F)cc2-c2cccc(Cl)c2)cc1CO | 1.95 µM | 465 µM | – |
| NS(=O)(=O)c1ccc(-n2nc(C(F)(F)F)cc2-c2ccc(Br)cc2)cc1CO | 0.592 µM | 230 µM | – |
| NS(=O)(=O)c1ccc(-n2nc(C(F)(F)F)cc2-c2ccc(O)cc2)cc1CO | – | – | inhibition [5]: 19%; inhibition [7]: 0% |
| CSc1ccc(-c2cc(C(F)(F)F)nn2-c2ccc(S(N)(=O)=O)c(CO)c2)cc1 | 0.235 µM | 59.7 µM | – |
| COc1ccc(-c2cc(C(F)(F)F)nn2-c2ccc3c(c2)COS3(=O)=O)cc1 | – | – | inhibition [1]: 36%; inhibition [2]: 92% |
| NS(=O)(=O)c1ccc(-n2nc(C(F)(F)F)cc2-c2ccc(Cl)cc2)cc1CO | 0.712 µM | 336 µM | – |
| NS(=O)(=O)c1ccc(-n2nc(C(F)(F)F)cc2-c2ccccc2Cl)cc1CO | 6.3 µM | 512 µM | – |
| CCSc1ccc(-c2cc(C(F)(F)F)nn2-c2ccc(S(N)(=O)=O)c(CO)c2)cc1 | 51.2 µM | 300 µM | – |
| Cc1cccc(-c2cc(C(F)(F)F)nn2-c2ccc(S(N)(=O)=O)c(CO)c2)c1 | 0.728 µM | 327 µM | – |
| NS(=O)(=O)c1ccc(-n2nc(C(F)(F)F)cc2-c2ccccc2F)cc1CO | 3.3 µM | 500 µM | – |
